Data as given in patent US20120328602A1, “COMPOSITIONS AND METHODS FOR TREATING CONDITIONS ASSOCIATED WITH CERAMIDE BIOSYNTHESIS” (priority 2007, published 2012).
“Also recorded” adds a separate entry of the source.

Experiments:
[1] = tested on: serine palmitoyl transferase (SPT); assay: serine palmitoyl transferase (SPT) activity; format: in vivo, mice; conditions: repeated morphine, tolerant mice vs vehicle
Method: SPT activity was determined by measuring the incorporation of [^3H] serine into 3-ketosphinganine following the method previously described (Williams et al., 1984). The results were normalized by the samples' protein concentration.

neutral SMase = assay: sphingomyelinase activity in spinal cord tissues, neutral isoform (Amplex Red kit); format: in vivo, mice; conditions: repeated morphine vs vehicle (not shown)
Method: Sphingomyelinase activity was measure using Amplex® Red Sphingomyelinase Assay Kit (Molecular Probes, Eugene, Oreg.) following manufacturer's instructions. First, spinal cord tissues were homogenized in buffers for each specific assay as previously described (Dobrowsky and Kolesnick, 2001). For the acid isoforms, Na acetate (100 mM and pH 5.0) lysis buffer was used. 2 mM EDTA was added to the lysis buffer for detection of the insoluble isoform. For neutral isoform detection, the tissues were homogenized in Hepes (20 mM, pH 7.4) lysis buffer. The kinetics for sphingomyelinase activity was measured in a fluorescence microplate reader for two hours followed by normalization per protein concentration of the sample. Hydrogen peroxide and sphingomyelinase were used as positive controls.

GFAP = assay: spinal expression of GFAP (astrocyte activation); format: in vivo, mice; conditions: for GFAP immunoreactivity in superficial layers of the dorsal horn: micrographs
Method: Animals were rapidly sacrificed (<1 min) in a CO2 chamber and the dorsal portion of the spinal cord lumbar region enlargement removed and stored at −80° C. until used. Cytosolic and nuclear extracts were prepared as previously described (Bethea et al., 1998), with minor modifications. Tissues from each mouse were suspended in extraction Buffer A (0.2 mM PMSF, […], 20 μM leupeptin, 1 mM sodium orthovanadate), homogenized for two minutes, and centrifuged at 1,000×g for ten minutes at 4° C. Supernatants were collected as the cytosolic fraction. The pellets containing nuclei were re-suspended in Buffer B (1% Triton X-100, 150 mM NaCl, 10 mM TRIS-HCl pH 7.4, 1 mM EGTA, 1 mM EDTA, 0.2 mM PMSF, 20 μm leupeptin, 0.2 mM sodium orthovanadate). After centrifugation for thirty minutes at 15,000×g at 4° C., the supernatants were collected as nuclear extracts and then stored at […] for further analysis. The levels of IκB-α, phospho-NF-κB p65 (serine 536), were quantified in cytosolic fraction from spinal cord tissue, while NF-κB p65 levels were quantified in nuclear fraction.

TNF-α = TNF-α in dorsal horn of lumbar spinal cord by ELISA; format: in vivo, mice; conditions: morphine group vs vehicle group, n=10
IL-1β = IL-1β in dorsal horn of lumbar spinal cord by ELISA; format: in vivo, mice; conditions: morphine group vs vehicle group, n=10
IL-6 = IL-6 in dorsal horn of lumbar spinal cord by ELISA; format: in vivo, mice; conditions: morphine group vs vehicle group, n=10
ceramide = assay: immunohistochemistry for ceramide in spinal cord (Example 3)
mice = assay: Rotarod motor function test; format: in vivo; conditions: myriocin 0.4 mg/kg, FB1 1 mg/kg, D609 40 mg/kg; fifteen, thirty, and sixty minutes after administration; n=4; vs vehicle
Method: Mice were trained before experimentation for their ability to remain for one-hundred twenty seconds on a revolving Rotarod apparatus (accelerating units increase from 3.5 to 35 rpm in five minutes). Mice (n=4 per group) were injected with an i.p. injection of the highest dose of FB1 (1 mg/kg), myriocin (0.4 mg/kg), D609 (40 mg/kg) used to block antinociceptive tolerance or its vehicle. Mice (n=4 per group) were tested and examined for motor […] on the Rotarod at fifteen, thirty, and sixty minutes after drug administration as described in the method section. The latency time to fall off the Rotarod was determined. A cut-off time of one-hundred twenty seconds was used.

[2] = tested on: manganese superoxide dismutase (MnSOD); assay: measurement of MnSOD enzymatic activity, spectrophotometric; format: in vivo, mice; conditions: FB1 0.25-1 mg/kg/d with morphine, n=5
Method: Dorsal halves of the spinal cord lumbar region enlargement (L4-L6) were homogenized with 10 mM phosphate buffered saline (pH 7.4) in a Polytron homogenizer and then sonicated on ice for one minute (twenty seconds, three times). The sonicated samples were subsequently centrifuged at 1,100×g for ten minutes. SOD activity was measured in the supernatants as described previously (Wang et al., 2004). A competitive inhibition assay was performed which used xanthine-xanthine oxidase-generated superoxide to reduce nitroblue tetrazolium (NBT) to blue tetrazolium salt. The reaction was performed in sodium carbonate buffer (50 mM, pH 10.1) containing EDTA (0.1 mM), nitroblue tetrazolium (25 μM), xanthine and xanthine-oxidase (0.1 mM and 2 nM respectively; Boehringer, Germany). The rate of NBT reduction was monitored spectrophotometrically (Perkin Elmer Lambda 5 Spectrophotometer, Milan, Italy) at 560 nm. The amount of protein required to inhibit the rate of NTB reduction by 50% was defined as one unit of enzyme activity. Cu/Zn-SOD activity was inhibited by performing the assay in the presence of 2 mM NaCN after pre-incubation for thirty minutes. Enzymatic activity was expressed in units per milligram of protein (Wang et al., 2004).

| SMILES | enzymatic activity of serine palmytoyl transferase (SPT) [1] | activity of the neutral SMase (neutral SMase) | GFAP immunoreactivity in superficial layers of the dorsal horn (GFAP; acute morphine in tolerant mice vs vehicle) | spinal expression of GFAP (GFAP; morphine group, n=5) | TNF-α in dorsal horn tissues (TNF-α) | IL-1β in dorsal horn tissues (IL-1β) | IL-6 in dorsal horn tissues (IL-6) | ceramide staining in dorsal horn, immunohistochemistry (ceramide; repeated morphine, day five) | Rotarod motor function deficits (mice) | loss of MnSOD enzymatic activity [2] | GFAP immunoreactivity in superficial layers of the dorsal horn (GFAP; 1 mg/kg/d of FB1 with morphine) | spinal expression of GFAP (activation of astrocytes) (GFAP; morphine plus FB1 1 mg/kg/d, n=5, ±SEM) | ceramide immunostaining (ceramide; co-administered with morphine, FB1 1 mg/kg/d, myriocin 0.4 mg/kg/d, D609 40 mg/kg/d) |
| --- | --- | --- | --- | --- | --- | --- | --- | --- | --- | --- | --- | --- | --- |
| CN1CC[C@]23c4c5ccc(O)c4O[C@H]2[C@@H](O)C=C[C@H]3[C@H]1C5 [morphine] | increased enzymatic activity | not changed compared to vehicle | increased | 7343.95±0.527 densitometry units | increased immunoreactivity; also recorded: significant increase | increased immunoreactivity; also recorded: significant increase | increased immunoreactivity; also recorded: significant increase | appearance of ceramide in the superficial layers of the dorsal horn; also recorded: marked appearance of positive staining for ceramide | – | – | – | – | – |
| CCCC[C@@H](C)[C@@H](OC(=O)C[C@@H](CC(=O)O)C(=O)O)[C@H](C[C@@H](C)C[C@H](O)CCCC[C@@H](O)C[C@H](O)[C@H](C)N)OC(=O)C[C@@H](CC(=O)O)C(=O)O [FB1, Fumonisin B1] | – | – | – | – | – | – | – | – | did not show signs of Rotarod deficits | restored in a dose-dependent manner | blocked | 4627.38±0.483 densitometry units | attenuated; also recorded: abolished the presence of positive staining for ceramide |
